Data as given in US20230011869A1 (Hoffmann-La Roche Inc., priority 2018, published 2023).
Where a name gives a salt, the structure may show the parent alone. Read-outs that look alike come from different tables or passages of the source.

System: Acinetobacter baumannii ATCC17961
Assay: Antimicrobial susceptibility testing: 90% growth inhibitory concentration (IC90) determination, Iso-Sensitest broth
Assay type: cell-based
Details: Acinetobacter baumannii, ATCC17961, 16 h, read-out: ATCC17961 IC90
Outline: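 Growth followed by optical density at 600 nm every 20 minutes for 16 h at 35±2° C, with inhibition assessed in log phase to give IC90. Compounds tested as twofold dilution series (e.g. 50 to 0.097 μM final) against 5×10^(5) CFU/ml in Iso-Sensitest medium.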

[1] = 90% growth inhibitory concentration, Acinetobacter baumannii ATCC17961, Iso-Sensitest broth, OD 600 nm over 16 h

| IC90 [1] | Compound | IC90 |
| --- | --- | --- |
| 0.074 µM | Cc1cc(Nc2nccn3c(-c4ccc(OCC#N)c(F)c4Cl)cnc23)ccc1C(=O)N1CCN(C(=O)N2CCO[C@@H](CN)C2)CC1 [Example 158, 2-[4-[8-[4-[4-[(2S)-2-(aminomethyl)morpholine-4-carbonyl]piperazine-1-carbonyl]-3-methyl-anilino]imidazo[1,2-a]pyrazin-3-yl]-3-chloro-2-fluoro-phenoxy]acetonitrile formate] |  |
| 0.041 µM | Cc1cc(Nc2nccn3c(-c4ccc(OCC#N)c(F)c4Cl)cnc23)ccc1C(=O)N1CCN(C(=O)C2(O)CCNCC2)CC1 [Example 214, 2-[3-chloro-2-fluoro-4-[8-[4-[4-(4-hydroxypiperidine-4-carbonyl)piperazine-1-carbonyl]-3-methyl-anilino]imidazo[1,2-a]pyrazin-3-yl]phenoxy] acetonitrile formate] |  |
| 0.164 µM | COc1ccc(-c2cnc3c(Nc4ccc(C(=O)N5CCC(C(=O)NC[C@H]6O[C@H](O)[C@H](N)[C@@H](O)[C@@H]6O)CC5)c(C)c4)nccn23)c(F)c1F [Example 584, N-(((2R,3S,4R,5R,6S)-5-amino-3,4,6-trihydroxytetrahydro-2H-pyran-2-yl)methyl)-1-(4-((3-(2,3-difluoro-4-methoxyphenyl)imidazo[1,2-a]pyrazin-8-yl)amino)-2-methylbenzoyl)piperidine-4-carboxamide] |  |
|  | CCc1cc(Nc2nccn3c(-c4ccc(OC(F)F)c(F)c4F)cnc23)ccc1C(=O)N1CCC(N)CC1 [Example 593, (4-aminopiperidin-1-yl)(4-((3-(4-(difluoromethoxy)-2,3-difluorophenyl)imidazo[1,2-a]pyrazin-8-yl)amino)-2-ethylphenyl)methanone formate] | 0.196 µM |
| 0.033 µM | C#CCOc1ccc(-c2cnc3c(Nc4ccc(C(=O)N5CCC(CN)CC5)c(C)c4)nccn23)c(F)c1F [Example 121, [4-(aminomethyl)-1-piperidyl]-[4-[[3-(2,3-difluoro-4-prop-2-ynoxy-phenyl)imidazo[1,2-a]pyrazin-8-yl]amino]-2-methyl-phenyl]methanone; formic acid] |  |
| 0.16 µM | COc1ccc(-c2cnc3c(Nc4ccc(C(=O)N5CCC(C(=O)NC[C@H](O)[C@@H](O)CN)CC5)c(C)c4)nccn23)c(F)c1F [Example 294, N-[(2S,3S)-4-amino-2,3-dihydroxybutyl]-1-[4-[[3-(2,3-difluoro-4-methoxyphenyl)imidazo[1,2-a]pyrazin-8-yl]amino]-2-methylbenzoyl]piperidine-4-carboxamide] |  |
| 0.046 µM | COc1ccc(-c2cnc3c(Nc4ccc(C(=O)N5CCN(C(=O)C6(O)CCNCC6)CC5)c(C)c4)nccn23)c(F)c1F [Example 204, [4-[[3-(2,3-difluoro-4-methoxy-phenyl)imidazo[1,2-a]pyrazin-8-yl]amino]-2-methyl-phenyl]-[4-(4-hydroxypiperidine-4-carbonyl)piperazin-1-yl]methanone hydrochloride] |  |
|  | Cc1cc(Nc2nccn3c(-c4ccc(OC(F)F)cc4)cnc23)ccc1C(=O)N1CCC(C(=O)N[C@H]2CCNC2)CC1 [Example 279, 1-[4-[[3-[4-(difluoromethoxy)phenyl]imi-dazo[1,2-a]pyrazin-8-yl]amino]-2-methylbenzoyl]-N-[(3S)-pyrrolidin-3-yl]piperidine-4-carboxamide; hydrochloride] | 1.34 µM |
| 0.078 µM | COc1ccc(-c2cnc3c(Nc4ccc(C(=O)N5CCN(C(=O)N6CCN[C@@H](CO)C6)CC5)c(C)c4)nccn23)c(F)c1F [Example 172, (R)-(4-(4-((3-(2,3-difluoro-4-methoxyphenyl)imidazo[1,2-a]pyrazin-8-yl)amino)-2-methylbenzoyl)piperazin-1-yl)(3-(hydroxymethyl)piperazin-1-yl)methanone hydrochloride] |  |
| 0.052 µM | Cc1cc(Nc2nccn3c(-c4ccc(OCC#N)c(F)c4F)cnc23)ccc1C(=O)N1CCN(C(=O)C2CCNCC2)CC1 [Example 197, 2-[2,3-difluoro-4-[8-[3-methyl-4-[4-(piperidine-4-carbonyl)piperazine-1-carbonyl]anilino]imidazo [1,2-a]pyrazin-3-yl]phenoxy] acetonitrile formate] |  |
| 0.038 µM | Cc1cc(Nc2nccn3c(-c4ccc(OCC#N)c(F)c4F)cnc23)ccc1C(=O)N1CCN(C(=O)CN(C)C)CC1 [Example 545, 2-[4-[8-[4-[4-[2-(dimethylamino)acetyl]piper-azine-1-carbonyl]-3-methylanilino]imidazo[1,2-a]pyrazin-3-yl]-2,3-difluorophenoxy]acetonitrile; formic acid] |  |
| 0.044 µM | CC[C@@]1(O)CN[C@H](C(=O)N2CCN(C(=O)c3ccc(Nc4nccn5c(-c6ccc(OCC#N)c(F)c6F)cnc45)cc3C)CC2)C1 [Example 229, 2-[4-[8-[4-[4-[(2S,4S)-4-ethyl-4-hydroxy-pyrrolidine-2-carbonyl]piperazine-1-carbonyl]-3-methyl-anilino]imidazo[1,2-a]pyrazin-3-yl]-2,3-difluoro-phenoxy]acetonitrile formate] |  |
| 0.31 µM | COc1ccc(-c2cnc3c(Nc4ccc(C(=O)N5CCN(C(=O)[C@@H]6CC(F)(F)CN6)CC5)c(C)c4)nccn23)c(F)c1F [Example 573, (S)-(4-(4-((3-(2,3-difluoro-4-methoxyphenyl)imidazo[1,2-a]pyrazin-8-yl)amino)-2-methylbenzoyl)piperazin-1-yl)(4,4-difluoropyrrolidin-2-yl)methanone hydrochloride] |  |
| 0.166 µM | Cc1cc(Nc2nccn3c(-c4ccc(OCC#N)c(F)c4F)cnc23)ccc1C(=O)N1CCC(C(=O)N2CC3(CNC3)C2)CC1 [Example 87, 2-(4-(8-((4-(4-(2,6-diazaspiro[3.3]heptane-2-carbonyl)piperidine-1-carbonyl)-3-methylphenyl)amino)imidazo[1,2-a]pyrazin-3-yl)-2,3-difluorophenoxy)acetonitrile] |  |
|  | COc1ccc(-c2cnc3c(Nc4ccc(C(=O)N5CCN(C(=O)[C@@H]6C[C@](C)(O)CN6)CC5)c(C)c4)nccn23)cc1F [Example 461, [4-[[3-(3-fluoro-4-methoxyphenyl)imidazo[1,2-a]pyrazin-8-yl]amino]-2-methylphenyl]-[4-[(2S,4S)-4-hydroxy-4-methylpyrrolidine-2-carbonyl]piperazin-1-yl]methanone; formic acid] | 0.148 µM |
|  | CCc1cc(Nc2nccn3c(-c4ccc(OC(F)F)c(F)c4F)cnc23)ccc1C(=O)N1CCN(C(=O)C2CCN(CC3CNC3)CC2)CC1 [Example 588, (1-(azetidin-3-ylmethyl)piperidin-4-yl)(4-(4-((3-(4-(difluoromethoxy)-2,3-difluorophenyl)imidazo[1,2-a]pyrazin-8-yl)amino)-2-ethylbenzoyl)piperazin-1-yl)methanone tris(2,2,2-trifluoroacetate)] | 0.116 µM |
| 0.069 µM | Cc1cc(Nc2nccn3c(-c4ccc(OCC#N)c(Cl)c4)cnc23)ccc1C(=O)N1CCN(C(=O)[C@@H]2C[C@@H](O)CN2)CC1 [Example 94, 2-(2-chloro-4-(8-((4-(4-((2S,4R)-4-hydroxypyrrolidin-2-carbonyl)piperazine-1-carbonyl)-3-methylphenyl)amino)imidazo[1,2-a]pyrazin-3-yl)phenoxy)acetonitrile] |  |
| 0.117 µM | COc1ccc(-c2cnc3c(Nc4ccc(C(=O)N5CCNCC5)c(C)c4)nccn23)c(F)c1F [Example 141, [4-[[3-(2,3-difluoro-4-methoxyphenyl)imidazo[1,2-a]pyrazin-8-yl]amino]-2-methylphenyl]-piperazin-1-ylmethanone] |  |
